Reference: patent US8592374B2, “Neurotrophic peptides” (Research Foundation for Mental Hygiene, Inc., priority 2007, dated 2013)

Tests used:
dentate gyrus = test: MAP2 and synaptophysin immunoreactivity in the dentate gyrus (mean pixel intensity), Example 3; format: in vivo, mice; details: mean pixel intensity in outlined area
Procedure: (§1) The animals were kept in groups of 3 per cage. The mice were given daily intraperitoneal injections of four CNTF peptides either separately or in a mixture for 2 weeks as described in table 1. From day 2, BrdU (Bromodeoxyuridine; 150 mg/Kg) was added to the injections. The animals were sacrificed 24 hours after the last injection (FIG. 1). Briefly, the animals were perfused transcardially with PBS and their brains taken out and dissected into halves. One hemisphere from each animal was frozen for biochemical analysis and the other was fixed in 4% paraformaldehyde for 48 hours followed by equilibration in 30% sucrose in PBS overnight. These were then processed for immunohistochemistry.

mice = test: Morris Water Maze, Peptide 6 subcutaneous pellets; format: in vivo; details: 30 day group
Procedure: Behavioral tests employing Morris Water maze task-based memory acquisition, retention and recall paradigms have also been carried out. Two groups of 18 mice each were treated with Peptide 6/Placebo containing implantable subcutaneous pellets with user specified timed release kinetics: 14 days for group 1 and 30 days for group 2.

[1] = system: dentate gyrus progenitors; test: DCX expression in BrdU labeled progenitors in the dentate gyrus; format: in vivo, mice; details: 14 day treatment group
Text: (§2) All experiments involving mice were done on 8-10 month old female retired breeders of C57BL6 background. A total of 33 mice were divided into 10 groups of 3 animals each (except control group which had 6 mice). The groups are described in Table 1. Details of CNTF peptides are described in Table 2.
as §1
(§3) Fixed tissues were cut into 40 μm sections on a freezing sliding microtome. One in 5 sections per brain was processed for BrdU staining and visualized by immunoflorecence. Cell counting was done on these sections to determine the number of BrdU labeled cells (representing newly born cells) in the dentate gyrus of the hippocampus. The area of counting was limited to the granule cell layer and the subgranular zone (a two-nucleus thick layer adjacent to the granule cell layer). For counting purposes, the dentate gyrus was divided into two areas, the outer granule cell layer (oGCL) consisting of out half of the granule cell layer, and the subventricular zone (SVZ) comprising of the inner half (towards the hilus) of the granule cell layer plus a two-nucleus thick layer adjacent to the outer border of the hilus. Cell counting was done on confocal images of the sections according to the optical dissector principle. Volumetric analysis was carried out with the help of Image Pro software.

[2] = system: signal transduction of LIF and CNTF; test: Interference with signal transduction of LIF and CNTF
[3] = system: dentate gyrus progenitor cells; test: Cell proliferation (BrdU labeled cells) in the dentate gyrus of mice given CNTF peptides i.p.; format: in vivo
Text: as §2
as §1, with “Table” for “table”, “injection.” for “injection (FIG. 1).”
as §3, with “of one” for “of out”, “the subgranular” for “the subventricular”, “zone (SGZ)” for “zone (SVZ) comprising”
as §1, §3

[4] = both concentrations (0.5 and 5 nmoles/animal)

Ac-VGDGGLFEKKL-NH2 [Peptide 6]
MAP2 immunoreactivity in the dentate gyrus (dentate gyrus): statistically significant increase | synaptophysin immunoreactivity in the dentate gyrus (dentate gyrus): statistically significant increase | memory acquisition (time spent and distance covered in the target quadrant), Morris Water Maze (mice): significant improvement in memory acquisition | differentiation of dentate gyrus progenitors into DCX (doublecortin) expressing cells [1]: two fold increase | interference with signal transduction of LIF versus CNTF [2]: interferes with the signal transduction of LIF more than with that of CNTF | cell proliferation in the SGZ (subgranular zone) [3, 4]: increased cell proliferation | cell proliferation in the oGCL (outer portion of the granule cell layer) [3, 4]: increased cell proliferation | proliferation of dentate gyrus progenitor cells compared with Peptide 9 ([3]; daily i.p. injections for 2 weeks): more proliferation than Peptide 9 | proliferation of dentate gyrus progenitor cells ([3]; daily i.p. injections for 2 weeks, BrdU labeling, 8-10 month old female C57BL6 mice): statistically significant increase
